# From US20260256814A1, “COMBINATION FOR THE TREATMENT OF INFECTIONS CAUSED BY MYCOPLASMA GENITALIUM” (GLAXOSMITHKLINE INTELLECTUAL PROPERTY DEVELOPMENT LIMITED, priority 2019, published 2026)
# Where two headings read alike, the source gives them in different places.
# What was measured:
# Mycoplasma genitalium [1] = assay: Determination of minimum inhibitory concentration (MIC) by the Vero-cell culture method, growth by qPCR; format: cell-based
# Protocol: A collection of 54 Mycoplasma genitalium isolates originating from 51 patients were tested. Thirty-one strains were macrolide-resistant, with azithromycin MICs of ≥16 μg/mL and mutations in 23S rRNA gene positions A2058 (n=17) or A2059 (n=14, E. coli numbering). Eighteen strains were moxifloxacin-resistant (MIC≥1 μg/ml); 17 had dual resistance and were resistant to both moxifloxacin and azithromycin.
# Gepotidacin minimal inhibitory concentrations (MICs) were determined by the Vero-cell culture method for all 54 isolates and minimal bactericidal concentrations (MBCs) against 44 Mycoplasma genitalium strains. Gepotidacin, azithromycin, doxycycline, and moxifloxacin MICs were determined by inoculating 5000 genome equivalents (geq) as determined by quantitative PCR (qPCR) into a Vero-cell culture containing two-fold dilutions of test-antibiotic (Hamasuna et al., Antimicrob. Agents Chemother 49, 4993-4998 (2005)). After a three-week incubation period, cells and supernatant were harvested and growth of Mycoplasma genitalium was determined by qPCR. MIC was defined as the minimal concentration of the test-antibiotic causing a 99% inhibition of growth when compared to the mean of the control cultures grown without antibiotic.
# Mycoplasma genitalium [2] = assay: Determination of minimum bactericidal concentration (MBC), Vero-cell culture, qPCR; format: cell-based; conditions: Mycoplasmoides genitalium, read-out: median MBC
# Protocol: After incubation for MIC determination, 15 μl of culture medium was transferred from the MIC plate to 135 μl fresh Vero-cell suspension, resulting in a 10-fold dilution of gepotidacin. Plates were sealed and incubated for four weeks and Mycoplasma genitalium growth was subsequently determined by qPCR. MBC was defined as the minimal concentration of the test-antibiotic causing a 99% inhibition of growth when compared to the mean of the control culture wells grown without antibiotic.
# Mycoplasma genitalium [3] = conditions: alternative treatment of Mycoplasma genitalium infection; cited from earlier work
# [4] = Mycoplasmoides genitalium, all 54 isolates (36 moxifloxacin-susceptible and 18 moxifloxacin-resistant), Vero-cell culture, 99% inhibition of growth, read-out: MIC50
# [5] = Mycoplasmoides genitalium, all 54 isolates, Vero-cell culture, read-out: MIC90
# [6] = all 54 isolates, Vero-cell culture
# [7] = 18 moxifloxacin-resistant isolates
# [8] = 36 moxifloxacin-susceptible isolates
compound,measurement,setting,value
"CC[C@H]1OC(=O)[C@H](C)[C@@H](O[C@H]2C[C@@](C)(OC)[C@@H](O)[C@H](C)O2)[C@H](C)[C@@H](O[C@@H]2O[C@H](C)C[C@H](N(C)C)[C@H]2O)[C@](C)(O)C[C@@H](C)CN(C)[C@H](C)[C@@H](O)[C@]1(C)O [Azithromycin, reference compound]",MIC,"Mycoplasma genitalium [1]; Mycoplasmoides genitalium, read-out: MICs, 31 macrolide-resistant strains (23S rRNA A2058 or A2059 mutations)",≥ 16 µg/mL
same,MIC50,Mycoplasma genitalium [1]; [4],16 µg/mL
same,MIC90,Mycoplasma genitalium [1]; [5],> 64 µg/mL
same,MIC90,Mycoplasma genitalium [1]; [6],>64 µg/mL
"C[C@H]1c2cccc(O)c2C(=O)C2=C(O)[C@]3(O)C(=O)C(C(N)=O)=C(O)[C@@H](N(C)C)[C@@H]3[C@@H](O)[C@@H]21 [Doxycycline, reference compound]",MIC50,Mycoplasma genitalium [1]; [4],0.5 µg/mL
same,MIC90,Mycoplasma genitalium [1]; [5],1 µg/mL
same,MIC range,Mycoplasma genitalium [1]; [6],0.06 to 2 µg/mL
"O=c1ccc2ncc(=O)n3c2n1C[C@H]3CN1CCC(NCc2cc3c(cn2)OCCC3)CC1 [Gepotidacin, (2R)-2-({4-[(3,4-dihydro-2/pyrano[2,3-c]pyridin-6-ylmethyl)amino]-1-piperidinyl}methyl)-1,2-dihydro-3H,8/2a,5,8a-triazaacenaphthylene-3,8-dione]",MIC90,Mycoplasma genitalium [1]; [7],0.25 µg/mL
same,MIC range,Mycoplasma genitalium [1]; [7],≤0.016 to 0.5 µg/mL
same,MIC90,Mycoplasma genitalium [1]; [8],0.25 µg/mL
same,MIC range,Mycoplasma genitalium [1]; [8],0.032 to 0.5 µg/mL
same,median MIC,Mycoplasma genitalium [1]; 44 isolates for which MBCs were available,0.064 µg/mL
same,"difference in MIC between fluoroquinolone-, dual-resistant and -susceptible isolates","Mycoplasma genitalium [1]; 54 isolates, p=0.2",no difference
same,difference in MIC between macrolide-resistant and -susceptible isolates,"Mycoplasma genitalium [1]; 54 isolates, p=0.24",no difference
same,MIC90,Mycoplasma genitalium [1]; Mycoplasmoides genitalium,0.25 µg/mL
same,MIC50,"Mycoplasma genitalium [1]; Mycoplasmoides genitalium, 18 moxifloxacin-resistant isolates",0.064 µg/mL
same,MIC50,"Mycoplasma genitalium [1]; Mycoplasmoides genitalium, 36 moxifloxacin-susceptible isolates",0.125 µg/mL
same,MIC,"Mycoplasma genitalium [1]; Mycoplasmoides genitalium, read-out: median MIC, 44 isolates for which MBCs were available",0.064 µg/mL
same,MIC,"Mycoplasma genitalium [1]; Mycoplasmoides genitalium, read-out: median MIC, all 54 isolates",0.125 µg/mL
same,MIC,"Mycoplasma genitalium [1]; Mycoplasmoides genitalium, read-out: modal MIC, all 54 isolates",0.125 µg/mL
same,MIC50,"Mycoplasma genitalium [1]; Mycoplasmoides genitalium, all 54 isolates (36 moxifloxacin-susceptible and 18 moxifloxacin-resistant), Vero-cell culture, 99% inhibition of growth",0.125 µg/mL
same,MIC range,Mycoplasma genitalium [1]; all 54 isolates,≤0.016 to 0.5 µg/mL
same,MIC90,Mycoplasma genitalium [1]; [6],0.25 µg/mL
same,MIC range,Mycoplasma genitalium [1]; [6],≤0.016 to 0.5 µg/mL
same,cross-resistance to the tested comparators,Mycoplasma genitalium [1]; all isolates incl. fluoroquinolone- and macrolide-resistant,no cross-resistance
same,MBC,Mycoplasma genitalium [2],0.125 µg/mL
"COc1c(N2C[C@@H]3CCCN[C@@H]3C2)c(F)cc2c(=O)c(C(=O)O)cn(C3CC3)c12 [Moxifloxacin, reference compound]",MIC,Mycoplasma genitalium [1]; Mycoplasmoides genitalium,≥ 1 µg/mL
same,MIC50,Mycoplasma genitalium [1]; Mycoplasmoides genitalium,0.25 µg/mL
same,MIC90,Mycoplasma genitalium [1]; Mycoplasmoides genitalium,4 µg/mL
same,MIC90,Mycoplasma genitalium [1]; [6],4 µg/mL
pristinamycin,effective,Mycoplasma genitalium [3],80%
